Results reported in patent publication US5780242A, “Bioassay for the screening of ION channel active molecules” (priority 1995, dated 1998).
Entries after “also recorded” stand apart in the source; their conditions may differ. Counter-ions that a name gives are not always drawn. Like-named read-outs stand apart in the source and are kept apart here.

Experiments:
[1] = local anesthesia; cited from earlier work
[2] = cited from earlier work
AChE = AChE (Bos taurus, UniProt P23795); test: Salt study: effect of MgSO4 on AChE of Prep E (AChE activity and CD helix); assay type: biochemical, bovine
AChE, sequence (P23795 31-613): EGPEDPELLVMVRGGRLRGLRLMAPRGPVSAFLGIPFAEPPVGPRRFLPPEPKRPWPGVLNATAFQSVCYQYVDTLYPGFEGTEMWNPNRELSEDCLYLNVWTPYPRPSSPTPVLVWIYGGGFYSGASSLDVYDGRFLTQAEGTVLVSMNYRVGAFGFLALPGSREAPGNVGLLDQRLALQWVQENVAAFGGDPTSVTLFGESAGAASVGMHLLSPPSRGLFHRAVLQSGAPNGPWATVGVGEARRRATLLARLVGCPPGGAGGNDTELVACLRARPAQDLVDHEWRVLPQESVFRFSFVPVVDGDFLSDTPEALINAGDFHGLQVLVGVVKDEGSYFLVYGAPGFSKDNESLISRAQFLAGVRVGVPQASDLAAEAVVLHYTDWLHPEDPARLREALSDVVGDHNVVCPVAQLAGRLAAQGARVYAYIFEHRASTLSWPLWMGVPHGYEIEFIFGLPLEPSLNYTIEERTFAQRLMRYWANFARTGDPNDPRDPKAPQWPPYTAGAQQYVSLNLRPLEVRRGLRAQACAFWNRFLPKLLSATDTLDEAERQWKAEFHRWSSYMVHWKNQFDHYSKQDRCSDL
Method: An AChE preparation (Prep E) was made using the scheme of S. L. Chan, supra "Purification of Beef Brain Acetylcholinesterase" Proceedings of the Western Pharmacology Society, 13:43-47, 1970. The AChE in 0.4M NaCl/[…] Na2 HPO4 was lyophilized and resuspended in 2.5 ml deionized water. The CD spectrum was made, and activity was checked qualitatively. The sample was dialyzed against 100 mM MgSO4 for 12 hours. AChE activity was qualitatively checked with CD. The sample was then redialyzed against 0.4M NaCl/30 mM Na2 HPO4 for 12 hours, checked for AChE activity and for CD absorption.
Activity of AChE was determined at 25° C.-30° C. and pH 8.0 by the spectrophotometric method of Ellman et al (Biochemical Pharmacology, 7:88-95 (1961). Measurements were made in the Hitachi Perkin-Elmer Model 139 spectrophotometer at 412 nm and 0.1 nm slit. One unit of AChE activity was defined as 1 μM of ATC (acetyl thiocholine iodide,Sigma) hydrolyzed per hour at 25° C. Specific activity is expressed as μmoles ATC hydrolyzed/ mg protein/ hour.

[3] = Circular dichroism blank run of the drug alone; assay type: physicochemical; settings: for molar ellipticity [θ] of drug alone, 30° C.: no enzyme, 222 nm; for ellipticity of drug alone: 215 nm to 230 nm / 222 nm
Method: (§1) A baseline of the solution is obtained using 222 nm without removing the cell after a run is begun to allow for thermal stabilization. Prior to adding the drug to the enzyme, a blank run consisting only of the drug at the same concentration used in the enzyme study is made. To obtain control data, temperature changes of 5 degrees centigrade in the neuroreceptor solution alone are made using a Forma water bath. Then the drug is added to a sample of the purified neuroreceptor solution, and the stabilizing effect of the drug on the temperature-related conformational changes is noted. All temperature runs are allowed to equilibrate for one hour before data is collected.
(§2) Again CD spectra were obtained using the above thermal apparatus over the range of 230 nm to 215 nm. A baseline of the enzyme solution was obtained using 300 nm to 285 nm without removing the cell after a run was begun. Prior to adding the drug to the enzyme, a blank run consisting only of the drug at the same concentration used in the enzyme study was made. To obtain control data, temperature changes in the enzyme solution alone were made using a Forma water bath. Then the drug was added to another enzyme solution with the same protein concentration which came from the stock solution, and temperature effects were noted. All temperature runs were allowed to equilibrate for one hour before data were collected.

[4] = mice; cited from earlier work
[5] = rats; cited from earlier work
[6] = test system: AChE preparation (sodium channel neuroreceptor); test: Circular dichroism bioassay at 222 nm: temperature-dependent helix-coil transition of the AChE/neuroreceptor preparation in presence of drug; assay type: binding, bovine; settings: for molar ellipticity [θ] at 222 nm, 30° C. / molar ellipticity [θ] at 222 nm, 35° C. / molar ellipticity [θ] at 222 nm, 38° C. / stabilization of the alpha helix / prevention of the helical transition between 30° C. and 35° C.: pH 7.0; for stabilization of the alpha helix / prevention of the helical transition between 30° C. and 35° C.: fresh preparations; for temperature needed to elicit the helix-coil transition in presence of drug: versus preparation without drug
Method: as §1
All studies are made in 1 mm, 5 mm and 2 mm cells using a Jouan Dichrograph II at 1×10^-5 O.D./mm sensitivity. The sample solution consists of 30 mM Na2 HPO4, pH 7.0, and the enzyme. Protein concentration is determined empirically and then measured by the Lowry method after the run. Lowry, et al., J Biol Chem, 193: 265-275 (1951). Samples are taken directly from G-200 fractions or DEAE-Cellulose fractions previously dialyzed against 30 mM Na2 HPO4, pH 7.0.
Thermal studies are carried out in the 10 mm cell. Care must be taken not to misplace the cell in the cell holder to avoid spectral changes. Additionally, since the absorption is affected by pressure, the ORD cell's glass stopper must be gently seated. for the thermal runs of Prep A, a micro-thermometer is used to record the temperature in the ORD cell after each spectral recording.
The routine consists of beginning a CD spectral scan followed by running each activity blank at that temperature using 3 minute reading intervals. The next CD spectral scan is made after recording the temperature in the ORD cell. The data recorded consists of duplicates of CD spectra with cell temperatures varying 5 degrees centigrade at 222 nm.
Pilocarpine, reagent grade, was used at 1.33×10^-6 M in the sample solutions.
A buffer solution of 20 mM Na2 HPO4, pH 7.0, gives minimal absorption problems in the range 300 nm to 195 nm. Enzyme solutions contain from 21 μg/ml to 31 μ/ml of protein in buffer. Total ORD cell volume is 3.0 ml.
A buffer solution of 30 Na2 HPO4, pH 7.0,gave minimal absorption problems in the range 300 nm to 195 nm. Enzyme solutions contained from 21 μg/ml to 31 μg/ml of protein in buffer. Total ORD cell volume was 3.0 ml. Drugs were added to ORD cells in 0.002 ml volumes in order to minimize dilution effects. A Roussel-Jouan Dichrograph 11 sensitive to 1×10^-5 dichroic absorption unit per recording mm was used with a 10 mm, strain free, quartz ORD cell (Pyrocell, New Jersey, U.S.A.).
as §2
Data for CD was expressed so that experimental values could be compared with published helix composition values. All graphs and raw data were expressed as molar el lipticity [.THETA.] based on mean residue molecular weight because the true molecular weight of AChE has not been established for the brain enzyme.

[7] = 7 Day old AChE with drug, 222 nm
[8] = AChE Prep B (7 Days Later) plus drug 1.33×10^-6 M, 222 nm
[9] = AChE Prep B (7 Days Later) plus drug 1.33×10^-6 M
[10] = Fresh AChE (Prep B) plus drug 1.33×10^-6 M
[11] = Fresh AChE (Prep C) plus drug 1.33×10^-6 M, 222 nm
[12] = Fresh AChE (Prep C) plus drug 1.33×10^-6 M
[13] = AChE Prep B (7 Days Later), 222 nm

SMILES: CCCNC(C)C(=O)Nc1ccccc1C (stereo not drawn) [prilocaine]
- duration of effective action [1]: 2 to 3 h
- side effect ([2]; doses greater than 400 mg): methemoglobinemia
- side effect ([2]; in vivo): drowsiness

SMILES: O=S(=O)([O-])[O-].[Mg+2] [MgSO4]
- random coil at 195 nm (AChE; AChE Prep E in 100 mM MgSO4, CD): 35%
- AChE Qualitative Activity (AChE; Prep E dialyzed against 100 mM MgSO4 for 12 hours): 0
- Helix 220 nm (AChE; Prep E dialyzed against 100 mM MgSO4 for 12 hours, CD): 16 mm

SMILES: Cc1cccc(C)c1NC(=O)C1CCCCN1C (stereo not drawn) [mepivacaine]
- duration of effective action [1]: 2 to 3 h
- onset of action [1]: rapid

SMILES: CCN(CC)CCOC(=O)c1ccc(N)cc1 [procaine]
- duration of effective action [1]: 1 to 2 h

SMILES: CCCCN1CCCCC1C(=O)Nc1c(C)cccc1C (stereo not drawn) [bupivacaine]
- duration of effective action [1]: 4 to 18 h

SMILES: CN1CCCC1c1cccnc1 (stereo not drawn) [Nicotine]
- molar ellipticity [θ] of drug alone, 30° C. [3]: -21,400

SMILES: Cc1ccccc1N [ortho-toliudine]
- carcinogenicity [4]: carcinogenic
- carcinogenicity [5]: carcinogenic

SMILES: CCCN(CC)C(CC)C(=O)Nc1c(C)cccc1C (stereo not drawn) [etidocaine]
- duration of effective action [1]: 4 to 18 h

SMILES: CC[C@@H]1C(=O)OC[C@@H]1Cc1cncn1C [Pilocarpine]
- ellipticity of drug alone [3]: positive ellipticity
- molar ellipticity [θ] of drug alone, 30° C. [3]: +5,450
- % Loss of Helix (30° C. to 35° C.) [6, 7]: 20.7%
- [θ]30 - [θ]35 [6, 8]: 720
- molar ellipticity [θ] at 222 nm, 30° C. [6, 9]: -3,590
- molar ellipticity [θ] at 222 nm, 35° C. [6, 9]: -2,280
- [θ]30 - [θ]35 ([6]; Fresh AChE (Prep B) plus drug 1.33×10^-6 M, 222 nm): 800
- molar ellipticity [θ] at 222 nm, 30° C. [6, 10]: -11,300
- molar ellipticity [θ] at 222 nm, 35° C. [6, 10]: -10,500
- [θ]30 - [θ]35 [6, 11]: 170
- [θ]38 - [θ]35 [6, 11]: 780
- molar ellipticity [θ] at 222 nm, 30° C. [6, 12]: -4,490
- molar ellipticity [θ] at 222 nm, 35° C. [6, 12]: -4,320
- molar ellipticity [θ] at 222 nm, 38° C. [6, 12]: -3,540
- % Loss of Helix (30° C. to 35° C.) ([6]; Fresh AChE with drug, 222 nm): 7.1%
- % Loss of Helix (35° C. to 40° C.) ([6]; Fresh AChE with drug, 222 nm): 17.5%
- stabilization of helix in preparations not freshly prepared ([6]; enzyme preparations more than one week old / not freshly prepared): not observed; also recorded: will not be protected
- stabilization of the alpha helix / prevention of the helical transition between 30° C. and 35° C. ([6]; 222 nm): appear to stabilize the helix
- stabilization of the alpha helix / prevention of the helical transition between 30° C. and 35° C. ([6]; 222 nm, listed as pilocarpine): prevent the helical transition
- temperature needed to elicit the helix-coil transition in presence of drug [6]: Higher temperatures were necessary

SMILES: CCN(CC)CC(=O)Nc1c(C)cccc1C [Lidocaine, Lidocaine hydrochloride monohydrate]
- ellipticity of drug alone [3]: no ellipticity
- duration of effective action [1]: 1 to 2 h
- % Loss of Helix (30° C. to 35° C.) [6, 7]: 16.8%
- [θ]30 - [θ]35 [6, 8]: 600
- molar ellipticity [θ] at 222 nm, 30° C. [6, 9]: -3,590
- Difference of Lidocaine from Above AChE, 30° C. [6, 13]: +540
- Difference of Lidocaine from Above AChE, 35° C. [6, 13]: +480
- [θ]30 - [θ]35 [6, 11]: 100
- [θ]38 - [θ]35 [6, 11]: 770
- molar ellipticity [θ] at 222 nm, 30° C. [6, 12]: -5,560
- molar ellipticity [θ] at 222 nm, 35° C. [6, 12]: -5,500
- molar ellipticity [θ] at 222 nm, 38° C. [6, 12]: -4,830
- % Loss of Helix (30° C. to 35° C.) ([6]; Fresh AChE with drug, 222 nm): 1.8%
- % Loss of Helix (35° C. to 40° C.) ([6]; Fresh AChE with drug, 222 nm): 13.6%
- temperature needed to elicit the helix-coil transition in presence of drug [6]: Higher temperatures were necessary
- allergic reactions ([2]; compared with procaine): fewer known allergic reactions than procaine
- side effect ([2]; in vivo): drowsiness
